According to PubChem BioAssay AID248 (DTP/NCI, 2004):
Several values for one entry are separate records, joined by “and”; a condition that tells them apart may be missing. Equal values may be shown once. Inconclusive results and toxic doses are left out. Cut-off read from the data, not from the text of the source: active = T/C of 150% or more; inactive = T/C below 125%.

Tested on: L1210 leukemia ip in BDF1 mice, survival T/C
Assay: NCI In Vivo Anticancer Drug Screen. Data for tumor model L1210 Leukemia (intraperitoneal) in B6D2F1 (BDF1) mice
Details: higher = longer survival
How it was run: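 Transplantable tumor model; survival measured in treated vs vehicle control mice. Value = treated/control.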

[1] = endpoint: mean survival time, dose: 100.0 mg/kg/injection, schedule: Q04DX002 (ip), vehicle: Klucel (hydroxypropylcellulose) (HPC)
[2] = endpoint: mean survival time, dose: 200.0 mg/kg/injection, schedule: Q04DX002 (ip), vehicle: Klucel (hydroxypropylcellulose) (HPC)
[3] = endpoint: mean survival time, dose: 400.0 mg/kg/injection, schedule: Q04DX002 (ip), vehicle: Klucel (hydroxypropylcellulose) (HPC)
[4] = endpoint: mean survival time, dose: 100.0 mg/kg/injection, schedule: Q04DX003 (ip), vehicle: Klucel (hydroxypropylcellulose) (HPC)
[5] = endpoint: mean survival time, dose: 200.0 mg/kg/injection, schedule: Q04DX003 (ip), vehicle: Klucel (hydroxypropylcellulose) (HPC)
[6] = endpoint: mean survival time, dose: 400.0 mg/kg/injection, schedule: Q04DX003 (ip), vehicle: Klucel (hydroxypropylcellulose) (HPC)
[7] = endpoint: mean survival time, dose: 100.0 mg/kg/injection, schedule: Q01DX001 (ip), vehicle: saline
[8] = endpoint: mean survival time, dose: 200.0 mg/kg/injection, schedule: Q01DX001 (ip), vehicle: saline
[9] = endpoint: mean survival time, dose: 400.0 mg/kg/injection, schedule: Q01DX001 (ip), vehicle: saline

Measured: T/C

C[n+]1c2ccccc2c(Nc2ccc(NS(=O)(=O)CCCCN=C(N)N)cc2)c2ccc(N)cc21
inactive: endpoint: median survival time, dose: 3.0 mg/kg/injection, schedule: Q01DX009 (oral), vehicle: water 97 % of control | endpoint: median survival time, dose: 6.0 mg/kg/injection, schedule: Q01DX009 (oral), vehicle: water 103 % of control | endpoint: median survival time, dose: 12.0 mg/kg/injection, schedule: Q01DX009 (oral), vehicle: water 98 % of control | endpoint: median survival time, dose: 24.0 mg/kg/injection, schedule: Q01DX009 (oral), vehicle: water 94 % of control | endpoint: median survival time, dose: 48.0 mg/kg/injection, schedule: Q01DX009 (oral), vehicle: water 95 % of control
active: endpoint: mean survival time, dose: 0.5 mg/kg/injection, schedule: Q03HX008 (ip), vehicle: water 167 % of control | endpoint: mean survival time, dose: 1.5 mg/kg/injection, schedule: Q01DX009 (ip), vehicle: water 186 % of control | endpoint: mean survival time, dose: 2.0 mg/kg/injection, schedule: Q03HX008 (ip), vehicle: water 160 % of control | endpoint: mean survival time, dose: 3.0 mg/kg/injection, schedule: Q01DX009 (ip), vehicle: water 160 % of control and 212 % of control | endpoint: mean survival time, dose: 3.0 mg/kg/injection, schedule: Q03HX008 (ip), vehicle: water 240 % of control | endpoint: mean survival time, dose: 3.12 mg/kg/injection, schedule: Q04DX003 (ip), vehicle: water 191 % of control | endpoint: mean survival time, dose: 6.0 mg/kg/injection, schedule: Q01DX009 (ip), vehicle: water 176 % of control and 218 % of control | endpoint: mean survival time, dose: 6.0 mg/kg/injection, schedule: Q03HX008 (ip), vehicle: water 327 % of control | endpoint: mean survival time, dose: 6.25 mg/kg/injection, schedule: Q04DX003 (ip), vehicle: water 152 % of control and 170 % of control | endpoint: mean survival time, dose: 12.0 mg/kg/injection, schedule: Q01DX009 (ip), vehicle: water 269 % of control | endpoint: mean survival time, dose: 12.5 mg/kg/injection, schedule: Q01DX001 (ip), vehicle: water 186 % of control | endpoint: mean survival time, dose: 12.5 mg/kg/injection, schedule: Q04DX003 (ip), vehicle: water 171 % of control and 202 % of control | endpoint: mean survival time, dose: 25.0 mg/kg/injection, schedule: Q01DX001 (ip), vehicle: water 207 % of control | endpoint: mean survival time, dose: 25.0 mg/kg/injection, schedule: Q04DX003 (ip), vehicle: water 194 % of control and 225 % of control | endpoint: median survival time, dose: 6.0 mg/kg/injection, schedule: Q01DX009 (sc), vehicle: water 166 % of control | endpoint: median survival time, dose: 12.0 mg/kg/injection, schedule: Q01DX009 (sc), vehicle: water 163 % of control

CC1(C)CC(OP(=O)(CCl)OC2CC(C)(C)N(O)C(C)(C)C2)CC(C)(C)N1O
inactive: endpoint: mean survival time, dose: 100.0 mg/kg/injection, schedule: Q04DX002 (ip), vehicle: water 97 % of control | endpoint: mean survival time, dose: 200.0 mg/kg/injection, schedule: Q04DX002 (ip), vehicle: water 97 % of control

CC(=O)OC1=C2C(C)(CCC(OC(C)=O)C2(C)C)C2=C(C1=O)C1(C)CCC(C(C)CCCC(C)C)C1(C)CC2=O (configuration not stated)
inactive: endpoint: mean survival time, dose: 100.0 mg/kg/injection, schedule: Q04DX003 (ip), vehicle: saline with Tween-80 87 % of control | endpoint: mean survival time, dose: 200.0 mg/kg/injection, schedule: Q04DX003 (ip), vehicle: saline with Tween-80 87 % of control

CCOc1ccc(CCOC(C)=O)cc1
inactive: [1] 97 % of control | [2] 101 % of control | [3] 101 % of control

Cc1cn(C2CCCCC2)c(=O)[nH]c1=O
inactive: endpoint: mean survival time, dose: 25.0 mg/kg/injection, schedule: Q01DX Z (ip), vehicle: methylcellulose (MC) 89 % of control | endpoint: mean survival time, dose: 50.0 mg/kg/injection, schedule: Q01DX Z (ip), vehicle: methylcellulose (MC) 92 % of control

CC(=O)Nc1ccc(NC(=O)Nc2cccc(C(C)=O)c2)cc1
inactive: endpoint: mean survival time, dose: 100.0 mg/kg/injection, schedule: Q01DX009 (ip), vehicle: Klucel (hydroxypropylcellulose) (HPC) 90 % of control | endpoint: mean survival time, dose: 200.0 mg/kg/injection, schedule: Q01DX009 (ip), vehicle: Klucel (hydroxypropylcellulose) (HPC) 101 % of control | endpoint: mean survival time, dose: 400.0 mg/kg/injection, schedule: Q01DX009 (ip), vehicle: Klucel (hydroxypropylcellulose) (HPC) 101 % of control

Cc1ccc(C(=O)c2ccc3c4c(cccc24)CC3)cc1
inactive: [4] 112 % of control | [5] 88 % of control | [6] 100 % of control

CCNC(=O)NC(C(=O)OCC)C(=O)OCC
inactive: endpoint: mean survival time, dose: 100.0 mg/kg/injection, schedule: Q01DX001 (ip), vehicle: Klucel (hydroxypropylcellulose) (HPC) 107 % of control | endpoint: mean survival time, dose: 200.0 mg/kg/injection, schedule: Q01DX001 (ip), vehicle: Klucel (hydroxypropylcellulose) (HPC) 98 % of control | endpoint: mean survival time, dose: 400.0 mg/kg/injection, schedule: Q01DX001 (ip), vehicle: Klucel (hydroxypropylcellulose) (HPC) 90 % of control

CCN1CCCC(Nc2nc(Nc3cc(Cl)cc(Cl)c3)nc3cc(Cl)ccc23)C1 (configuration not stated)
inactive: endpoint: mean survival time, dose: 100.0 mg/kg/injection, schedule: Q04DX003 (ip), vehicle: saline sonified 95 % of control | endpoint: mean survival time, dose: 200.0 mg/kg/injection, schedule: Q04DX003 (ip), vehicle: saline sonified 97 % of control | endpoint: mean survival time, dose: 400.0 mg/kg/injection, schedule: Q04DX003 (ip), vehicle: saline sonified 106 % of control

CCOC(=O)/C(=C/c1cccc2ccccc12)P(=O)(OCC)OCC
inactive: endpoint: mean survival time, dose: 50.0 mg/kg/injection, schedule: Q01DX001 (ip), vehicle: saline 97 % of control | [7] 97 % of control | [8] 103 % of control | [9] 101 % of control

O=C(COC(=O)c1ccccc1C(=O)c1ccccc1O)c1ccc(-c2ccccc2)cc1
inactive: [8] 91 % of control | [9] 91 % of control

NC(=O)c1[nH]cnc1N
inactive: [7] 97 % of control | [8] 101 % of control | [9] 97 % of control

O=C(O)C1CC(O)CN1 (configuration not stated)
inactive: endpoint: mean survival time, dose: 12.5 mg/kg/injection, schedule: Q04DX002 (ip), vehicle: saline 110 % of control and 107 % of control | endpoint: mean survival time, dose: 25.0 mg/kg/injection, schedule: Q04DX002 (ip), vehicle: saline 106 % of control and 97 % of control | endpoint: mean survival time, dose: 50.0 mg/kg/injection, schedule: Q04DX002 (ip), vehicle: saline 100 % of control and 110 % of control | endpoint: median survival time, dose: 25.0 mg/kg/injection, schedule: Q01DX009 (ip), vehicle: saline 102 % of control | endpoint: median survival time, dose: 50.0 mg/kg/injection, schedule: Q01DX009 (ip), vehicle: saline 103 % of control | endpoint: median survival time, dose: 100.0 mg/kg/injection, schedule: Q01DX009 (ip), vehicle: saline 108 % of control | endpoint: median survival time, dose: 200.0 mg/kg/injection, schedule: Q01DX009 (ip), vehicle: saline 112 % of control | endpoint: median survival time, dose: 400.0 mg/kg/injection, schedule: Q01DX009 (ip), vehicle: saline 114 % of control

COc1ccc(-c2ccccc2)cc1S
inactive: endpoint: mean survival time, dose: 50.0 mg/kg/injection, schedule: Q01DX001 (ip), vehicle: carboxymethylcellulose (CMC) 95 % of control | endpoint: mean survival time, dose: 100.0 mg/kg/injection, schedule: Q01DX001 (ip), vehicle: carboxymethylcellulose (CMC) 98 % of control | endpoint: mean survival time, dose: 200.0 mg/kg/injection, schedule: Q01DX001 (ip), vehicle: carboxymethylcellulose (CMC) 93 % of control | endpoint: mean survival time, dose: 400.0 mg/kg/injection, schedule: Q01DX001 (ip), vehicle: carboxymethylcellulose (CMC) 98 % of control

CCc1c(Nc2ccccc2Cl)[nH]c(N)nc1=S
inactive: endpoint: mean survival time, dose: 100.0 mg/kg/injection, schedule: Q01DX Z (ip), vehicle: methylcellulose (MC) 97 % of control | endpoint: mean survival time, dose: 200.0 mg/kg/injection, schedule: Q01DX Z (ip), vehicle: methylcellulose (MC) 97 % of control

O=C(NO)C(=O)NO
inactive: endpoint: mean survival time, dose: 50.0 mg/kg/injection, schedule: Q01DX009 (ip), vehicle: saline 98 % of control | endpoint: mean survival time, dose: 100.0 mg/kg/injection, schedule: Q01DX009 (ip), vehicle: saline 113 % of control | endpoint: mean survival time, dose: 100.0 mg/kg/injection, schedule: Q04DX002 (ip), vehicle: saline with Tween-80 90 % of control | endpoint: mean survival time, dose: 200.0 mg/kg/injection, schedule: Q01DX009 (ip), vehicle: saline 117 % of control | endpoint: mean survival time, dose: 200.0 mg/kg/injection, schedule: Q04DX002 (ip), vehicle: saline with Tween-80 107 % of control | endpoint: mean survival time, dose: 400.0 mg/kg/injection, schedule: Q04DX002 (ip), vehicle: saline with Tween-80 110 % of control

CCCCNC(=S)NC(=O)c1ccc(Br)cc1
inactive: [1] 97 % of control | [2] 97 % of control | [3] 90 % of control

CCOC(=O)C1CCCCN1 (configuration not stated)
inactive: endpoint: mean survival time, dose: 75.0 mg/kg/injection, schedule: Q01DX001 (ip), vehicle: saline 91 % of control | endpoint: mean survival time, dose: 150.0 mg/kg/injection, schedule: Q01DX001 (ip), vehicle: saline 91 % of control

CC(=O)OC1=C(C)CCCC(C)(C)C1
inactive: endpoint: mean survival time, dose: 75.0 mg/kg/injection, schedule: Q01DX001 (ip), vehicle: other 92 % of control | endpoint: mean survival time, dose: 150.0 mg/kg/injection, schedule: Q01DX001 (ip), vehicle: other 92 % of control | endpoint: mean survival time, dose: 300.0 mg/kg/injection, schedule: Q01DX001 (ip), vehicle: other 97 % of control

Cc1cc(C)c(-n2c(-c3ccc(Cl)cc3)nnc2-c2ccc(Br)cc2)c(C)c1
inactive: [4] 101 % of control | [5] 90 % of control | [6] 95 % of control
